Results: PMC8844424, “Optimization, purification and characterization of laccase from Ganoderma leucocontextum along with its phylogenetic relationship” (Scientific Reports, 2022)

System: Glacc110 (purified laccase of G. leucocontextum)
Assay: spectrophotometric oxidation assay at […] nm, Lineweaver-Burk plot
Format: biochemical, Ganoderma leucocontextum
Conditions: 1-10 mM guaiacol, 100 mM citrate-phosphate buffer, pH 3.0; temperature not stated for kinetics

Km: 1660 µM
SMILES: COc1ccccc1O [guaiacol]
